# Reference: patent publication US20240158418A1 (C4 Therapeutics, Inc., priority 2021, published 2024)
# Target: T1, EGFR L858R-T790M (Homo sapiens, UniProt P00533, L858R/T790M)
# T1 construct: NCI-H1975 (harboring EGFR heterozygous L858R-T790M mutations); host or cells: NCI-H1975
# Experiment: EGFR degradation, Total EGFR (L858R-specific) HTRF, NCI-H1975
# Format: cell-based
# Conditions: Table 9A; NCI-H1975 cells, 6 hours, Total EGFR HTRF; read-out: H1975 EGFR DC50
# How it was run: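 FRET signal from HTRF kits measured phospho-EGFR at pY1068 or total EGFR after 6 h treatment at 37 °C. Compounds ran as 11-point half-log dilutions from 10 μM in duplicate, in cells in phenol red-free RPMI with 10% FBS. Concentrations giving 50% inhibition or degradation were reported as IC50 or DC50.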
# T1 sequence (P00533 25-1210 T790M/L858R): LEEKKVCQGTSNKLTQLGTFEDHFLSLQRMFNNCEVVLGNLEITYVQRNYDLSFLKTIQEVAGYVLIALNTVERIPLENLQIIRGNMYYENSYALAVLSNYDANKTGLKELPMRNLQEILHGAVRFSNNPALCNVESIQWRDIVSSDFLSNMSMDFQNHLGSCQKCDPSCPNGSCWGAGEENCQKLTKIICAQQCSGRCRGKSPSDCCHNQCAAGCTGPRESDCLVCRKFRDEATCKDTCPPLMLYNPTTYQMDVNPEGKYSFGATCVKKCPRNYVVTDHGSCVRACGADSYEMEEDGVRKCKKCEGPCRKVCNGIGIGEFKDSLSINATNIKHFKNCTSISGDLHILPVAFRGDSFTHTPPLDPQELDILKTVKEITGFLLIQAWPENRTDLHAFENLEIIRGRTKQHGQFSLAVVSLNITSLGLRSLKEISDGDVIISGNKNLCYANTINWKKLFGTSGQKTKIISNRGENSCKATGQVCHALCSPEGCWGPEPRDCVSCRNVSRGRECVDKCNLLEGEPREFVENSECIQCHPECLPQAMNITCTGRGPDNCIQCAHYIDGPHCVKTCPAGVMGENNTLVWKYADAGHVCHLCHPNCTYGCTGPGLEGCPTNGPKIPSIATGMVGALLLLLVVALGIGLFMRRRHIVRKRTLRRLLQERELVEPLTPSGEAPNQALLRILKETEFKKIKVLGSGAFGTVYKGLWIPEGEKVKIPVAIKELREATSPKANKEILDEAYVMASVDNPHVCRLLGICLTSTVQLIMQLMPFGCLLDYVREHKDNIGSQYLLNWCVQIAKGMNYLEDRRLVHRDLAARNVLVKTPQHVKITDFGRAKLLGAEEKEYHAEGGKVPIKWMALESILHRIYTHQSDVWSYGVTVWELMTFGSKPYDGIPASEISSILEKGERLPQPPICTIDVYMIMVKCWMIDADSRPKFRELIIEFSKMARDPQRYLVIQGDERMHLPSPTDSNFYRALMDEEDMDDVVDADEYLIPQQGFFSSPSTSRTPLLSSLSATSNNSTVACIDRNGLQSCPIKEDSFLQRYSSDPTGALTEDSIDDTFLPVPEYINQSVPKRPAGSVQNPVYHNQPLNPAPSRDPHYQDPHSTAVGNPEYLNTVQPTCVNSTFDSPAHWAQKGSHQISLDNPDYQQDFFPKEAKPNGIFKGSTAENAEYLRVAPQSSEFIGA
row,DC50 [nM],SMILES
1,< 50,"O=C1CCC(Nc2ccc(N3CCC(O)(CC(=O)N4CCN(c5ccc(-c6cc(F)c7c(c6)C(=O)N(C(C(=O)Nc6nccs6)c6ncn8c6CCC8)C7)cc5)CC4)CC3)c(C(F)(F)F)c2)C(=O)N1 (centres unmarked) [Compound 18, 2-(6,7-dihydro-5H-pyrrolo[1,2-c]imidazol-1-yl)-2-(6-(4-(4-(2-(1-(4-((2,6-dioxopiperidin-3-yl)amino)-2-(trifluoromethyl)phenyl)-4-hydroxypiperidin-4-yl)acetyl)piperazin-1-yl)phenyl)-4-fluoro-1-oxoisoindolin-2-yl)-N-(thiazol-2-yl)acetamide]"

# Same assay, conditions: Table 9B; NCI-H1975 cells, 6 hours, Total EGFR HTRF; read-out: H1975 EGFR DC50
row,DC50 [nM],SMILES
1,< 50,"Cn1nc(N2CCC(=O)NC2=O)c2ccc([C@@H]3CCN(C(=O)CN4CC5(CCN(c6ccc(-c7cc(F)c8c(c7)C(=O)N(C(C(=O)Nc7nccs7)c7ncn9c7CCC9)C8)cc6)CC5)C4)CC3(F)F)cc21 (stereo partly drawn) [Compound 144, 2-(6,7-dihydro-5H-pyrrolo[1,2-c]imidazol-1-yl)-2-[6-[4-[2-[2-[(4S)-4-[3-(2,4-dioxohexahydropyrimidin-1-yl)-1-methyl-indazol-6-yl]-3,3-difluoro-1-piperidyl]-2-oxo-ethyl]-2,7-diazaspiro[3.5]nonan-7-yl]phenyl]-4-fluoro-1-oxo-isoindolin-2-yl]-N-thiazol-2-yl-acetamide]"
2,50 to 150,"O=C1CCC(Nc2cc(F)c(N3CCC(O)(CC(=O)N4CC5(C4)CN(c4ccc(-c6cc(F)c7c(c6)C(=O)N(C(C(=O)Nc6nccs6)c6ncn8c6CCC8)C7)cc4)C5)CC3)c(Cl)c2)C(=O)N1 (single isomer, unassigned; isomer 1) [Compound 145, 2-[6-[4-[2-[2-[1-[2-chloro-4-[[2,6-dioxo-3-piperidyl]amino]-6-fluoro-phenyl]-4-hydroxy-4-piperidyl]acetyl]-2,6-diazaspiro[3.3]heptan-6-yl]phenyl]-4-fluoro-1-oxo-isoindolin-2-yl]-2-(6,7-dihydro-5H-pyrrolo[1,2-c]imidazol-1-yl)-N-thiazol-2-yl-acetamide, isomer 1]"
3,< 50,"O=C1CCC(Nc2cnc(C3CCN(CC(=O)N4CC5(C4)CN(c4ccc(-c6cc(F)c7c(c6)C(=O)N(C(C(=O)Nc6nccs6)c6ncn8c6CCC8)C7)cc4)C5)CC3)c(F)c2)C(=O)N1 (centres unmarked) [Compound 112, 2-(6,7-dihydro-5H-pyrrolo[1,2-c]imidazol-1-yl)-2-(6-(4-(6-(2-(4-(5-((2,6-dioxopiperidin-3-yl)amino)-3-fluoropyridin-2-yl)piperidin-1-yl)acetyl)-2,6-diazaspiro[3.3]heptan-2-yl)phenyl)-4-fluoro-1-oxoisoindolin-2-yl)-N-(thiazol-2-yl)acetamide]"
4,< 50,"Cn1nc(N2CCC(=O)NC2=O)c2ccc(C3CCN(CC(=O)N4CC5(CCN(c6ccc(-c7cc(F)c8c(c7)C(=O)N(C(C(=O)Nc7nccs7)c7ncn9c7CCC9)C8)cc6)CC5)C4)CC3(F)F)cc21 (centres unmarked) [Compound 106, 2-(6,7-dihydro-5H-pyrrolo[1,2-c]imidazol-1-yl)-2-(6-(4-(2-(2-(4-(3-(2,4-dioxotetrahydropyrimidin-1(2H)-yl)-1-methyl-1H-indazol-6-yl)-3,3-difluoropiperidin-1-yl)acetyl)-2,7-diazaspiro[3.5]nonan-7-yl)phenyl)-4-fluoro-1-oxoisoindolin-2-yl)-N-(thiazol-2-yl)acetamide]"
5,50 to 150,"O=C1CCC(Nc2ccc(N3CCCC(O)(CC(=O)N4CC5(C4)CN(c4ccc(-c6cc(F)c7c(c6)C(=O)N(C(C(=O)Nc6nccs6)c6ncn8c6CCC8)C7)cc4)C5)CC3)c(F)c2)C(=O)N1 (single isomer, unassigned; isomer a1) [Compound 164, 2-(6,7-dihydro-5H-pyrrolo[1,2-c]imidazol-1-yl)-2-[6-[4-[2-[2-[1-[4-[[2,6-dioxo-3-piperidyl]amino]-2-fluoro-phenyl]-4-hydroxy-azepan-4-yl]acetyl]-2,6-diazaspiro[3.3]heptan-6-yl]phenyl]-4-fluoro-1-oxo-isoindolin-2-yl]-N-thiazol-2-yl-acetamide, isomer A1]"
6,< 50,"O=C1CCC(Nc2cnc(N3CCC(O)(CC(=O)N4CC5(C4)CN(c4ccc(-c6cc(F)c7c(c6)C(=O)N(C(C(=O)Nc6nccs6)c6ncn8c6CCC8)C7)cc4)C5)CC3)c(F)c2)C(=O)N1 (single isomer, unassigned; isomer 1) [Compound 139, 2-(6,7-dihydro-5H-pyrrolo[1,2-c]imidazol-1-yl)-2-[6-[4-[2-[2-[1-[5-[[2,6-dioxo-3-piperidyl]amino]-3-fluoro-2-pyridyl]-4-hydroxy-4-piperidyl]acetyl]-2,6-diazaspiro[3.3]heptan-6-yl]phenyl]-4-fluoro-1-oxo-isoindolin-2-yl]-N-thiazol-2-yl-acetamide, isomer 1]"
7,< 50,"O=C1CC[C@H](Nc2ccc(N3CCC(O)(CC(=O)N4CC5(C4)CN(c4ccc(-c6cc(Cl)c7c(c6)C(=O)N(C(C(=O)Nc6nccs6)c6ncn8c6CCC8)C7)cc4)C5)CC3)c(F)c2)C(=O)N1 (stereo partly drawn) [Compound 136, 2-[4-chloro-6-[4-[2-[2-[1-[4-[[(3S)-2,6-dioxo-3-piperidyl]amino]-2-fluoro-phenyl]-4-hydroxy-4-piperidyl]acetyl]-2,6-diazaspiro[3.3]heptan-6-yl]phenyl]-1-oxo-isoindolin-2-yl]-2-(6,7-dihydro-5H-pyrrolo[1,2-c]imidazol-1-yl)-N-thiazol-2-yl-acetamide]"
8,50 to 150,"O=C1CCN(c2ccc(N3CCC(O)(CC(=O)N4CC5(C4)CN(c4ccc(-c6cc(F)c7c(c6)C(=O)N(C(C(=O)Nc6nccs6)c6ncn8c6CCC8)C7)cc4)C5)CC3)c(F)c2)C(=O)N1 (centres unmarked) [Compound 156, 2-(6,7-dihydro-5H-pyrrolo[1,2-c]imidazol-1-yl)-2-[6-[4-[2-[2-[1-[4-(2,4-dioxohexahydropyrimidin-1-yl)-2-fluoro-phenyl]-4-hydroxy-4-piperidyl]acetyl]-2,6-diazaspiro[3.3]heptan-6-yl]phenyl]-4-fluoro-1-oxo-isoindolin-2-yl]-N-thiazol-2-yl-acetamide]"
9,< 50,"O=C1CCC(Nc2ccc(N3CCCC(O)(CC(=O)N4CC5(C4)CN(c4ccc(-c6cc(F)c7c(c6)C(=O)N(C(C(=O)Nc6nccs6)c6ncn8c6CCC8)C7)cc4)C5)CC3)c(F)c2)C(=O)N1 (single isomer, unassigned; isomer a2) [Compound 165, 2-(6,7-dihydro-5H-pyrrolo[1,2-c]imidazol-1-yl)-2-[6-[4-[2-[2-[1-[4-[[2,6-dioxo-3-piperidyl]amino]-2-fluoro-phenyl]-4-hydroxy-azepan-4-yl]acetyl]-2,6-diazaspiro[3.3]heptan-6-yl]phenyl]-4-fluoro-1-oxo-isoindolin-2-yl]-N-thiazol-2-yl-acetamide, isomer A2]"
10,50 to 150,"O=C1CCC(Nc2cc(F)c(N3CCC(CC(=O)N4CC5(C4)CN(c4ccc(-c6cc(F)c7c(c6)C(=O)N(C(C(=O)Nc6nccs6)c6ncn8c6CCC8)C7)cc4)C5)CC3)c(F)c2)C(=O)N1 (centres unmarked) [Compound 101, 2-(6,7-dihydro-5H-pyrrolo[1,2-c]imidazol-1-yl)-2-(6-(4-(6-(2-(1-(4-((2,6-dioxopiperidin-3-yl)amino)-2,6-difluorophenyl)piperidin-4-yl)acetyl)-2,6-diazaspiro[3.3]heptan-2-yl)phenyl)-4-fluoro-1-oxoisoindolin-2-yl)-N-(thiazol-2-yl)acetamide]"
